For data set [1], the system named is cardiomyocyte cell line H9C2. The experiment in a line: Cytotoxicity assay, H9C2 cells. The format is cell-based. The following applies: rat cardiomyocyte cell line H9C2.
Data set [2] deals with SW48 cells. As to the kind of experiment: Cytotoxicity assay, CellTiter-Glo 2.0, SW48 cells. Format: cell-based. The following applies: SW48, human colon cancer cell line expressing wild type kRAS (EGF receptor mutation); 48 hours. As to the method:
FIG. 3, panels A-B, illustrates the cytotoxicity of Structure 2 and Structure 3 on SW48 cells. The cytotoxicity of compounds of interest were tested against the human colon cancer cell line SW48 as described in the experimental section. SW48 cells express the wild type kRAS but are driven by an EGF receptor mutation G1255A. Compounds were incubated with cells for 48 hours and the assay was developed using Cell Titer Glo 2.0. IC50 vales were determined using GraphPad Prism 4.
(§1) Compounds were assayed for inhibition of cell proliferation and killing cancer cells. Cytotoxicity assays were conducted according to the following general procedure. SW480, SW48, SW900, SW620 were all maintained in Leibowitz L15 media supplemented with 10% fetal bovine serum and 1% PenStrep and grown in a 37° C. incubator without supplemental CO2. Capan-1 cells were maintained in Iscove's Modified Dulbecco's Medium (ATCC 30-2005) containing 20% fetal bovine serum and 1% PenStrep and grown in a 37° C. incubator containing 5% CO2.
For dose-response assays, SW480 cells were plated into 96 well plates (1 million/plate, ˜10,000/well, 250 μL media/well). Cells were allowed to settle and adhere to plate bottom overnight Compounds were placed in 500 μL media and mixed. […] Luminescence was read with FLx800 (BioTek Instruments).
On the technique in general: In ATP-based viability assays light output follows the ATP content of the culture.

Data set [3] concerns HT-1080 cells. As to the kind of experiment: Cell morphology assay. The conditions noted are these: 24 hours, 1.2-100 μM, Alexa Fluor 488 Phalloidin. Format: cell-based, human. Here is the method:
FIG. 7, panels A-F, illustrate the effect of an exemplary compound of Structure 2 on the HT-1080 cells in a cell morphology assay. Effect of Structure 2 on the HT-1080 cells in cell morphology assay. HT1080 cells were seeded in 6-well plates at 300,000 per plate, incubated overnight and various amounts of Structure 2 (compound 1) in the DMSO vehicle or vehicle control added. After 24 hours, cells were washed, fixed with formaldehyde, stained with Alexa Fluor 488 Phalloidin and imaged using a fluorescence microscope. […]
An assay was performed (see e.g., Kato-Stankiewicz et al., Inhibitors of RAS/Raf-1 interaction identified by two-hybrid screening revert RAS-dependent transformation phenotypes in human cancer cells. Proc Natl Acad Sci USA. 2002; 99: 14398-403) to evaluate the ability of an inhibitor to dampen the RAS/RAF/MEK/ERK pathway and provide a reversion of cell appearance from a rounded to a flat, elongated morphology (Paterson et al., Activated nRAS controls the transformed phenotype of HT1080 human fibrosarcoma cells. Cell. 1987 Dec. 4; 51 (5):803-12). […] Cells were then washed 2 times with PBS and imaged using a Zeiss Axiovert 25 fluorescence microscope.

Data set [4] deals with SW480 cells implanted into nu/nu mice. The experiment in a line: Xenograft study. The conditions noted are these: SW480 subcutaneous tumors in nu/nu mice, 2 mg/kg ip, 24 days post treatment, p<0.028 Student's t-test. The format is in vivo, nude mice (nu/nu). Here is the method: FIG. 10 Effect of Structure 2 on growth of SW480 cells implanted into nu/nu mice. Boxplots showing tumor volumes in nude mice 24 days post treatment ip with either 2 mg/kg Structure 2 or vehicle control (DMSO). Subcutaneous tumors were induced by subcutaneous inoculation in the right flank of 3×10^6 human colon cancer cell line SW480 in Matrigel. Treatment with Structure 2 was initiated 6 days post tumor implantation. Structure 2 was administrated ip at 2 mg/kg, while control was given vehicle DMSO. All animals were sacrificed at day 30. […] In the Figure, (*) designates p<0.028 compared to vehicle control by Student's t-test.
Female nude mice (nu/nu) were purchased from Simonsen Laboratories (Gilroy, CA). All experiments were performed with 4 to 6-week-old female mice. Mice were housed in a barrier unit in the Tosk Animal facility, kept in filter-top cages with water and food provided ad libitum, and were checked at least twice a week for clinical signs of disease and discomfort. Subcutaneous tumors are induced by subcutaneous inoculation in the right flank of 3×10^6 human colon cancer cell line SW480 in Matrigel. The tumors are allowed to grow and volumes (mm^3) are calculated weekly from digital caliper measurements as 0.5×length×width^2. Treatment was initiated 6 days post tumor implantation. Structure 2 was administrated ip at 2 mg/kg, while control was given vehicle DMSO. […]

The subject of data set [5] is SW480 cells. As to the kind of experiment: Cytotoxicity assay, CellTiter-Glo 2.0, SW480 cells. The format is cell-based. The following applies: SW480, human colon cancer cell line expressing kRAS G12V; 48 hours. As to the method: FIG. 2, panels A-B, illustrate the cytotoxicity of Structure 2 and Structure 3 on SW480 cells. The cytotoxicity of compounds of interest was tested against the human colon cancer cell line SW480 as described in the experimental section. SW480 cells express a mutant G12V kRAS. Compounds were incubated with cells for 48 hours and the assay was developed using Cell Titer Glo 2.0. IC50 vales were determined using GraphPad Prism 4.
as §1
For dose-response assays, SW480 cells were plated into 96 well plates (1 million/plate, ˜10,000/well, 250 μL media/well). Cells were allowed to settle and adhere to plate bottom overnight Compounds were placed in 500 μL media and mixed. Then 250 μL compounds+media was placed in an intermediate plate in row A. Rows B through H were filled with 125 μL media. […] Luminescence was read with FLx800 (BioTek Instruments).

Data set [6] deals with A431. As to the kind of experiment: Cytotoxicity assay, A431 cells. The format is cell-based. The following applies: A431, human epidermoid carcinoma cell line expressing wild type kRAS. Here is the method: as §1

Molecules are shown by their SMILES. Entries after “also recorded” stand apart in the source; their conditions may differ.

A word on the IC50: it is the concentration that inhibits the measured activity by half.

`Cc1nc(-c2ccc(CNC(=O)c3cc(CC(C)C)nn3C)cc2)no1` [Structure 2, 3-isobutyl-1-methyl-N-(4-(5-methyl-1,2,4-oxadiazol-3-yl)benzyl)-1H-pyrazole-5-carboxamide]: the “not cytotoxic at concentrations up to” value in data set [1] and in data set [6] was > 40 µM throughout. The half-inhibitory concentration (IC50) is 607 nM in data set [2] and 232 nM in data set [5]. Besides, in data set [3], the “reversion of cell phenotype (morphology)” value is on record as “produced reversion of cell phenotype from the rounded to the flatter more elongated morphology”. In addition, the “tumor volume versus vehicle control” value in data set [4] is reported as “statistically significant reduction in tumor volume; also recorded: mitigates the growth of SW480 cells”.

The values above are taken from patent US12486255B2, “Modulators of RAS GTPase” (Tosk, Inc., priority 2018, dated 2025).
